# Entries after “also recorded” stand apart in the source; their conditions may differ. Where a SMILES comes first, the peptide text is derived from it.
# Legend:
# fmr1 knockout mice [1] = assay: Social behavior, bouts of sniffing, fmr1 knockout mice; format: in vivo, mouse; conditions: 100 mg/kg i.p. 28-day
# Description: G-2-MePE was administered at the dose of 100 mg/kg i.p. in 0.1 ml saline, once daily for 28 days. Vehicle-treated animals were injected with 0.1 ml saline daily for 28 days. Thereafter, drug or vehicle treatments were stopped and animals were tested on successive days until all tests were completed. Finally, the animals were sacrificed for determining expression of pAkt and pERK Mice are a social species, which engage in easily scored social behaviors including approaching, following, sniffing, allogrooming, aggressive encounters, sexual interactions, parental behaviors, nesting and sleeping in a group huddle. In the present studies, social recognition and social memory in mice were evaluated by assessing the amount of time spent sniffing a novel mouse upon repeated exposures, to induce familiarity, and reinstatement of high levels of sniffing when a novel stimulus animal is introduced.
# [2] = system: subjects with Rett Syndrome; assay: Placebo controlled study in subjects with Rett Syndrome (Example 15); format: in vivo, human
# Excerpt: Thirty subjects with Rett Syndrome are recruited. Subjects are female and aged between […] (Mean=12.1 SD=4.4). All subjects have an IQ<60 and mutations of the MECP2 gene. Subjects also show ether spike activity in the EEG or an increase in lower frequency bands of the EEG as detected by Fast Fourier Transform (FFT). Subjects are instructed that concomitant medications are to be stable for at least six weeks prior to study. Subjects receiving medication to treat signs of inattention are tested in the morning and instructed to take their medication in the afternoon. Subjects with QTc interval >451 msec are excluded.
# The study is a randomized double blind placebo controlled parallel study with three doses of either placebo, 10 mg/kg T.I.D oral G-2-MePE for five days, or 30 mg/kg T.I.D. oral G-2-MePE.
# Subjects are tested at baseline using the following instruments: The Rett Syndrome Natural History/Clinical Severity Scale, Aberrant Behavior Checklist Community Edition (ABC), Vinelands, Clinical Global Impression of Severity (CGI-S) and their carers completed the Caregiver Strain Questionnaire (CSQ).
# Subjects are brought into clinic on an inpatient basis to enable initial baseline recordings of EEG, ECG and respiratory rate continuously for 24 hours using polysomnography technology. Hand movements are also recorded using the Q-Sensor™. Derived EEG measures include: spikes per unit time in the EEG, overall power of frequency bands of the EEG, QTc and heart rate variability (HRV), and respiratory irregularities.
# Adverse events are also recorded using standard safety measures and the SMURF elicitation of adverse events
# Statistically, the effect of treatment with G-2-MePE is analysed by conducting a repeated analysis of covariance (ANCOVA) on the effect of treatment on change from baseline scores.
# MeCP2 deficient mice = system: MeCP2 deficient mice
# Description: We treated hemizygous MeCP2(1lox) male mice with 20 mg/kg/day of G-2-MePE or saline, (0.01% BSA, n=15 per group in survival experiment and n=20 in the LTP experiment). The treatments were administered intraperitoneally from 4 weeks after birth. For the survival experiments the treatment was maintained through the course of the experiment. For the LTP experiment the mice were treated until week 9 when they were used for slice preparation.
# MeCP2 deficient mutant mice develop RTT symptoms at about 4-6 weeks of age and die between 10-12 weeks (Chen et al., 2001. Nat Genet 27: 327-331). We compared the survival of the wild type controls and the MeCP2 deficient animals in vehicle- and G-2-MePE-treated groups. Survival was measured weekly from start of treatment (4 weeks) and used to produce Kaplan-Meier survival curves to show the proportion of mice that survived (y axis) at each weekly interval (x axis) (see FIG. 22).
# fmr1 knockout mice [3] = assay: Species typical behaviors: marble burying and nest building; format: in vivo, mouse; conditions: 100 mg/kg i.p. 28 days
# MeCP2-/y mice = assay: Heart rate measurements (Example 10); format: in vivo, mouse; conditions: 8 weeks old, treated from P15
# Description: Real time cardiac pulse rate is measured using a tail clip sensor (Mouse OX Oximeter—Oakmont, Pa.). Mice are not anesthetized but physically restrained in a fitted open plastic tube. Prior to the recording session the tube is placed overnight in the cages housing the experimental animals to allow habituation. Body temperature is maintained at ˜82-84° F. throughout the recording time. We record 3 trials of 15 minutes for each mouse, mice are 8 weeks old and treated with vehicle or G-2-MePE from P15.
# [4] = 30 mg/kg T.I.D. oral vs placebo
structure (smiles),measurement,setting,value
"C[C@@]1(C(=O)N[C@@H](CCC(=O)O)C(=O)O)CCCN1C(=O)CN [Example G-2-MePE, Glycyl-L-2-methylprolyl-L-glutamic acid] (HELM PEPTIDE1{G.[C[C@@]1(C(=O)[*:2])CCCN1[*:1]].E}$$$$V2.0)",heightened sniffing of the presented mouse,fmr1 knockout mice [1]; fmr1 KO,nullified
same,sniffing,fmr1 knockout mice [1]; wild-type group,no significant effect
same,EEG spike activity,[2]; [4],decreases spike activity
same,power of the delta band of the EEG,[2]; [4],decreases the power of the delta band
same,"subscales Nonverbal Communication, Epilepsy/Seizures, Hand use",[2]; [4],significant effects
same,Serious Adverse Events,[2]; 10 or 30 mg/kg T.I.D. oral,No Serious Adverse Events
same,adverse events / tolerability,[2]; 10 or 30 mg/kg T.I.D. oral,no more adverse events than are present during treatment with placebo; also recorded: well tolerated
same,increases in QTC,[2]; 10 or 30 mg/kg T.I.D. oral,No instances of increases in QTC
same,respiratory rate or heart rate variability,[2]; 10 or 30 mg/kg T.I.D. oral,No effects
same,"Rett Syndrome Natural History/Clinical Severity Score, overall","[2]; human, in vivo",no significant effect overall
same,"spikes per unit time in the EEG, overall",[2]; overall treatment effect,significant overall reduction
same,total hand movements per twenty-four hour period (Q-Sensor),[2]; significant for 30 mg/kg T.I.D.,reduces total hand movements
same,time at which 50% of the animals survived,"MeCP2 deficient mice; 20 mg/kg/day i.p. from 4 weeks, saline about 11 weeks",about 15 weeks
same,"time to 50 percent death, re-examination with control group re-run","MeCP2 deficient mice; 20 mg/kg/day i.p., controls 13.5 weeks",16 weeks
same,"time to 50 percent death, data initially presented","MeCP2 deficient mice; 20 mg/kg/day i.p., untreated 11 weeks",16 weeks
same,safety in mecp2 mice,"MeCP2 deficient mice; mouse, in vivo",No safety concerns
same,marble burying behavior,fmr1 knockout mice [3]; fmr1 KO,normalized marble burying behavior
same,nest building behavior,fmr1 knockout mice [3]; fmr1 KO,increased both marble burying and nest building behaviors
same,marble burying,fmr1 knockout mice [3]; wild-type mice,no significant effect
same,"occurrence of irregular, lower heart rate",MeCP2-/y mice,significantly reduced
